Read-outs that look alike come from different tables or passages of the source.
Assays:
proteasome = target: T1, proteasome (Homo sapiens, UniProt P28074); experiment: Proteasome inhibitory activity (Suc-Leu-Leu-Val-Tyr-AMC cleavage, crude enzyme solution from HeLa S3 cell extract); format: biochemical
T1 construct: The obtained high molecular fraction (molecular weight >500K) was used as an enzyme solution for the detection of proteasome activity; endogenous in cells; host or cells: HeLa S3 cells: homogenate, 100,000G supernatant, >500K fraction from Centricon-500
Procedure: 1 x 10^9 of HeLa S3 cells were dispersed in 5 ml of the buffer A [20 mmol/L of Tris (pH 7.5), 2 mmol/L of ATP, 5 mmol/L of MgCl2, 1 mmol/L of dithiothreitol (DTT)], and then homogenized at 4°C. The supernatant centrifuged at 100,000G was concentrated by a Centricon-500 (supplied by Amicon) and diluted with 2.5 ml of the buffer B [25 mmol/L of Tris/HCl (pH 7.5), 2 mmol/L of ATP, 1 mmol/L of DTT, 20% of glycerol]. The obtained high molecular fraction (molecular weight >500K) was used as an enzyme solution for the detection of proteasome activity. Suc-Leu-Leu-Val-Tyr-AMC [Suc: Succinyl; AMC: Aminomethylcoumarin](supplied by Peptide Institute, Inc.) was used as a substrate for measuring inhibitory activity for proteasome (stored as a 2 mmol/L DMSO solution). The reaction was carried out by the following method using 96-well microtiter plates. To 96 µl of a reaction buffer [20 mmol/L of Tris/HCl (pH 8), 0.5 mmol/L of EDTA, 0.04% of sodium dodecylsulfate (SDS)] were added 1 µl of a drug solution (DMSO) and 2 µl of an enzyme solution followed by adding 1 µl of a substrate solution thereto, and then the mixture was incubated at 37°C for one hour. […]

[1] = test system: Human colon cancer, WiDr cells; experiment: Antiproliferative activity in WiDr cells (MTT, 72 hours); format: cell-based
Procedure: Human colon cancer, WiDr cells suspended in MEM media containing 10% of fetal calf serum were seeded in 96-well microtiter plates at 2 x 10^3cells/well, and precultured in an incubator with 5% of CO2 at 37°C for 24 hours. Then, each compound diluted appropriately with the media was added into the well at 50 µl/well. At this time, a final concentration of each compound is up to 100 µmol/l or 1 µmol/l. The cells were cultured in the incubator with 5% of CO2 at 37°C for additional 72 hours. At 5 hours before the culturing was terminated, MTT [3-(4,5-dimethylthiazol-2-yl)-2,5-[…] bromide] dissolved in the medium at a final concentration of 1 mg/mL was added into the well at 50 µl/well. After the culturing, dimethyl sulfoxide was added to the well at 150 µl/well, and the plate was vigorously stirred using a plate mixer to dissolve crystals of MTT-formazan completely. […]

[2] = crude proteasome fraction (>500K) from HeLa S3 cells, substrate Suc-Leu-Leu-Val-Tyr-AMC, 37°C for one hour, read-out: IC50
[3] = crude proteasome fraction (>500K) from HeLa S3 cells, substrate Suc-Leu-Leu-Val-Tyr-AMC, 37°C for one hour

Row | IC50 (proteasome; [2]) [nM] | IC50 [1] [nM] | SMILES | IC50 (proteasome) [nM] | IC50 (proteasome; [3]) [nM]
1 | 38 | 1200 | CCC(C)C1C(=O)OC1C(=O)NC1CC1CC(NC(=O)C(C)NC=O)C(=O)OCc1ccccc1 (centres unmarked) [Compound 34] |  | 
2 | 4 | 64 | CCC(C)C1C(=O)OC1C(=O)NC1CC1CC(NC(=O)C(C)NC(=O)NCc1ccccc1)C(=O)OCc1ccccc1 (centres unmarked) [Compound 30] |  | 
3 | 3 |  | CC(C)=C[C@@H]1C(=O)O[C@H]1C(=O)NCCCC[C@H](NC(=O)[C@H](C)NC(=O)OC(C)(C)C)C(=O)NCc1cccc2ccccc12 [Compound 74] |  | 
4 | 12 | 2400 | CCC(C)C1C(=O)OC1C(=O)NC1CC1CC(NC(=O)C(C)NP(=O)(c1ccccc1)c1ccccc1)C(=O)OCc1ccccc1 (centres unmarked) [Compound 41] |  | 
5 | 11 | 57 | CCC(C)C1C(=O)OC1C(=O)NC1CC1CC(NC(=O)C(C)N)C(=O)NCc1ccccc1 (centres unmarked) [Compound 20] |  | 
6 | 8 | 486 | CCC(C)C1C(=O)OC1C(=O)NC1CC1CC(NC(=O)C(C)NS(=O)(=O)c1ccccc1)C(=O)OCc1ccccc1 (centres unmarked) [Compound 39] |  | 
7 | 30 |  | CC(C)CC1C(=O)OC1C(=O)NCCCCC(NC(=O)C(C)NC(=O)OC(C)(C)C)C(=O)OCc1ccccc1 (centres unmarked) [Compound 49] |  | 
8 | 1 |  | CC(C)CC1C(=O)OC1C(=O)NCCCCC(NC(=O)C(C)NC(=O)OC(C)(C)C)C(=O)NCc1cccc2ccccc12 (centres unmarked) [Compound 75] |  | 
9 | 250 |  | CC(C)CC1C(=O)OC1C(=O)NCCCCCNC(=O)C(C)NC(=O)OC(C)(C)C (centres unmarked) [Compound 53] |  | 
10 | 5 | 433 | CCC(C)C1C(=O)OC1C(=O)NC1CC1CC(NC(=O)C(C)NC(=S)NCc1ccccc1)C(=O)OCc1ccccc1 (centres unmarked) [Compound 32] |  | 
11 | 100 |  | CC(C)C[C@@H]1C(=O)O[C@H]1C(=O)Nc1cc(C[C@H](NC(=O)OC(C)(C)C)C(=O)OCc2ccccc2)ccc1OCc1ccccc1 [Compound 82] |  | 
12 | 5 |  | CCC(C)C1C(=O)OC1C(=O)NC1CC1CC(NC(=O)C(C)NC(=O)OCc1ccc(Br)cc1)C(=O)OCc1ccccc1 (centres unmarked) [Compound 29] |  | 
13 | 27 | 93 | CCC(C)C1C(=O)OC1C(=O)NC1CC1CC(NC(=O)C(C)NC(C)=O)C(=O)OCc1ccccc1 (centres unmarked) [Compound 35] |  | 
14 | 6.2 | 30 | CCC(C)C1C(=O)OC1C(=O)NC1CC1CC(NC(=O)C(C)NC(=O)OC(C)(C)C)C(=O)OCc1ccc2ccccc2c1 (centres unmarked) [Compound 5] |  | 
15 | 15 | 76 | CCC(C)C1C(=O)OC1C(=O)NC1CC1CC(NC(=O)C(C)NC(=O)c1ccccc1)C(=O)OCc1ccccc1 (centres unmarked) [Compound 33] |  | 
16 | 6 | 5700 | CCC(C)C1C(=O)OC1C(=O)NC1CC1CC(NC(=O)C(C)NC(=O)CO[Si](C)(C)C(C)(C)C)C(=O)OCc1ccccc1 (centres unmarked) [Compound 37] |  | 
17 | 21 | 62 | CCC(C)C1C(=O)OC1C(=O)NC1CC1CC(NC(=O)C(C)NC(=O)c1cnccn1)C(=O)OCc1ccccc1 (centres unmarked) [Compound 36] |  | 
18 | 38 | 40 | CCC(C)C1C(=O)OC1C(=O)NC1CC1CC(NC(=O)C(C)N)C(=O)OCc1ccc2ccccc2c1 (centres unmarked) [Compound 6] |  | 
19 | 77 |  | CC(C)CC1C(=O)OC1C(=O)NCCCCCC(=O)OCc1ccccc1 (centres unmarked) [Compound 55] |  | 
20 | 24 | 450 | CCC(C)C1C(=O)OC1C(=O)NC1CC1CC(NC(=O)C(C)NS(C)(=O)=O)C(=O)OCc1ccccc1 (centres unmarked) [Compound 40] |  | 
21 | 12 | 200 | CCC(C)C1C(=O)OC1C(=O)NC1CC1CC(NC(=O)C(C)NC(=O)OC(C)(C)C)C(=O)OCC(=O)c1ccccc1 (centres unmarked) [Compound 18] |  | 
22 | 24 | 22000 | CC(C)C[C@@H]1C(=O)O[C@H]1C(=O)NC1CC1CC(NC(=O)[C@H](C)NC(=O)OC(C)(C)C)C(=O)NCc1cccc2ccccc12 (some centres unmarked) [Compound 91] |  | 
23 | 51 | < 41 | CCCCOC(=O)C(CC1CC1NC(=O)C1OC(=O)C1C(C)CC)NC(=O)C(C)N (centres unmarked) [Compound 12] |  | 
24 | 11 | 113 | CCC(C)C1C(=O)OC1C(=O)NC1CC1CC(NC(=O)C(C)NC(=O)NC(C)C)C(=O)OCc1ccccc1 (centres unmarked) [Compound 31] |  | 
25 | 22 | 1900 | CC(C)CC1C(=O)OC1C(=O)NCCCCC(COC(=O)c1ccccc1)NC(=O)C(C)NC(=O)OC(C)(C)C (centres unmarked) [Compound 56] |  | 
26 | 14 |  | CCC(C)C1C(=O)OC1C(=O)NC1CC1CC(NC(=O)C(C)NC(=O)OC(C)(C)C)C(=O)OCc1cccc(F)c1 (centres unmarked) [Compound 8] |  | 
27 | 26 |  | CC(C)CC1C(=O)OC1C(=O)NCCCC(NC(=O)OC(C)(C)C)C(=O)OCc1ccccc1 (centres unmarked) [Compound 58] |  | 
28 | 47 |  | CC(C)CC1C(=O)OC1C(=O)NCCCCCNC(=O)C1C(OCc2ccccc2)CCN1C(=O)OC(C)(C)C (centres unmarked) [Compound 54] |  | 
29 | 40 |  | CC(C)CC1C(=O)OC1C(=O)NCCCC(NC(=O)C(C)N)C(=O)OCc1ccccc1 (centres unmarked) [Compound 60] |  | 
30 | 50 |  | CC(C)CC1C(=O)OC1C(=O)NCCCCC(NC(=O)OC(C)(C)C)C(=O)OCc1ccccc1 (centres unmarked) [Compound 48] |  | 

More lines, now with the values behind:

Row | SMILES | IC50 (proteasome; [2]) [nM] | IC50 [1] [nM] | IC50 (proteasome) [nM] | IC50 (proteasome; [3]) [nM]
31 | CCC(C)C1C(=O)OC1C(=O)NC1CC1CC(NC(=O)C(C)N)C(=O)OC (centres unmarked) [Compound 2] | 70 |  |  | 
32 | CCC(C)C1C(=O)OC1C(=O)NC1CC1CC(NC(=O)C(C)NC(=O)OC(C)(C)C)C(=O)OC(C)(C)C (centres unmarked) [Compound 13] | 30 | 490 |  | 
33 | CCC(C)C1C(=O)OC1C(=O)NC1CC1CC(NC(=O)C(C)NC(=O)OC(C)(C)C)C(=O)OC (centres unmarked) [Compound 1] |  | 790 | 50 | 
34 | CCC(C)C1C(=O)OC1C(=O)NC1CC1CC(NC(=O)C(C)N)C(=O)O (centres unmarked) [UCK14A1, reference compound] | 400 | > 30000 |  | 
35 | CCC(C)C1C(=O)OC1C(=O)NC1CC1CC(NC(=O)C(C)NC(=O)OC(C)(C)C)C(=O)OCC1CCCCC1 (centres unmarked) [Compound 14] |  | 300 |  | 18
36 | CCC(C)C1C(=O)OC1C(=O)NC1CC1CC(NC(=O)C(C)NC(=O)OC(C)(C)C)C(=O)NCc1cccc2ccccc12 (centres unmarked) [Compound 21] |  | 520 | 4 | 
37 | CC(C)C[C@@H]1C(=O)O[C@H]1C(=O)NCCC[C@H](NC(=O)[C@H](C)NC(=O)OC(C)(C)C)C(=O)OCc1ccccc1 [Compound 59] | 33 |  |  | 
38 | CCC(C)C1C(=O)OC1C(=O)NC1CC1CC1NC(=O)C(C)NC1=O (centres unmarked) [Compound 44] |  |  |  | 47
39 | C=CCOC(=O)C(CC1CC1NC(=O)C1OC(=O)C1C(C)CC)NC(=O)C(C)NC(=O)OC(C)(C)C (centres unmarked) [Compound 9] | 26 | 10 |  | 
40 | CCC(C)C1C(=O)OC1C(=O)NC1CC1CC(NC(=O)C(C)NC(=O)OC(C)(C)C)C(=O)NNc1ccccc1 (centres unmarked) [Compound 23] |  | 410 | 17 | 
41 | CCC(C)C1C(=O)OC1C(=O)NC1CC1CC(NC(=O)C(C)NC(=O)OC(C)(C)C)C(=O)N1CCOCC1 (centres unmarked) [Compound 26] | 13 | 160 |  | 
42 | CCC(C)C1C(=O)OC1C(=O)NCCCC(NC(=O)C(C)NC(=O)OC(C)(C)C)C(=O)OCc1ccccc1 (centres unmarked) [Compound 45] |  | 300 | 6 | 
43 | CCCCNC(=O)C(CC1CC1NC(=O)C1OC(=O)C1C(C)CC)NC(=O)C(C)N (centres unmarked) [Compound 25] |  | 59 | 24 | 
44 | CC(C)C[C@@H]1C(=O)O[C@H]1C(=O)NCCCC[C@H](NC(=O)[C@H](C)N)C(=O)OCc1ccccc1 [Compound 50] | 30 | 1800 |  | 
45 | CCC(C)C1C(=O)OC1C(=O)NCCCC(NC(=O)C(C)N)C(=O)OCc1ccccc1 (centres unmarked) [Compound 46] | 6 | 150 |  | 
46 | CCC(C)C1C(=O)OC1C(=O)NC1CC1CC(NC(=O)C(C)NC(=O)OC(C)(C)C)C(=O)OCc1c2ccccc2cc2ccccc12 (centres unmarked) [Compound 7] | 17 | 700 |  | 
47 | CCC(C)C1C(=O)OC1C(=O)NC1CC1CC(NC(=O)C(C)N)C(=O)NCc1cccc2ccccc12 (centres unmarked) [Compound 22] | 12 | < 41 |  | 
48 | CCC(C)C1C(=O)OC1C(=O)NC1CC1CC(NC(=O)C(C)N1C(=O)c2ccccc2C1=O)C(=O)OCc1ccccc1 (centres unmarked) [Compound 42] |  |  | 22 | 
49 | CC(C)CC1C(=O)OC1C(=O)NCC(NC(=O)OC(C)(C)C)C(=O)OCc1ccccc1 (centres unmarked) [Compound 47] |  |  |  | 150
50 | COc1ccc(CC(NC(=O)OC(C)(C)C)C(=O)OCc2ccccc2)cc1NC(=O)C1OC(=O)C1CC(C)C (centres unmarked) [Compound 81] |  |  |  | 500
51 | CCC(C)C1C(=O)OC1C(=O)NC1CC1CC(NC(=O)C(C)NC(=O)OC(C)(C)C)C(=O)N[C@@H](C)C(=O)OCc1ccccc1 (some centres unmarked) [Compound 27] |  |  | 3 | 

Source: patent EP1166781A1, “PROTEASOME INHIBITORS” (KYOWA HAKKO KOGYO CO., LTD., priority 1999, dated 2000)
